Tests used:
Assay type in all cases: cell-based
[1] = system: 17 HPV-negative HNSCC and cervical squamous cancer cell lines; assay: High-throughput drug screen (HTDS), cell death by AOC_LD, HPV-negative cell lines; details: for HPV negative Resistant (number of cell lines): resistant = AOC_LD 0; for HPV negative Sensitive (number of cell lines): sensitive = AOC_LD greater than 0
Method: (§1) The concordance correlation coefficient was computed to assess the reproducibility of the normalized growth rates of the 2 replicates. […] A chi-square test was applied to compare drug classification and the cluster membership. The Fisher exact test was applied to compare mutations status (wild-type and mutant) and drugs' response data (sensitive and resistant).
(§2) The effects of 864 unique drugs from 51 classes was tested in 16 HPV-positive and 17 HPV-negative HNSCC and cervical squamous cancer cell lines (Table 2) that were characterized previously (Kaiu, et al., Oncotarget 2017; 8(49):86369-83).

[2] = system: 16 HPV-positive HNSCC and cervical squamous cancer cell lines; assay: High-throughput drug screen (HTDS), cell death by AOC_LD, HPV-positive cell lines; details: for HPV positive Resistant (number of cell lines): resistant = AOC_LD 0; for HPV positive Sensitive (number of cell lines): sensitive = AOC_LD greater than 0
Method: as §1, §2

[3] = system: 16 HPV-positive and 17 HPV-negative HNSCC and cervical squamous cancer cell lines; assay: High-throughput drug screen (HTDS), whole panel, comparison by HPV status; details: for efficacy in HPV-positive vs HPV-negative cell lines: AOC_LD as a dichotomous variable; for odds ratio: sensitivity in HPV-positive vs HPV-negative cell lines
Method: as §1, §2

| Compound | HPV negative Resistant (number of cell lines) [1] | HPV negative Sensitive (number of cell lines) [1] | HPV positive Resistant (number of cell lines) [2] | HPV positive Sensitive (number of cell lines) [2] | efficacy in HPV-positive vs HPV-negative cell lines [3] | odds ratio [3] |
| --- | --- | --- | --- | --- | --- | --- |
| CC(=O)NCC(=O)N1[C@@H]2CC[C@H]1c1ccc(Nc3ncc(C(F)(F)F)c(NC4CCC4)n3)cc12 [PF03814735] | 15 | 2 | 8 | 8 | tended to be more effective in HPV-positive cell lines | 7.02 |
| COc1cc2c(Nc3ccc(NC(=O)c4ccccc4)cc3)ncnc2cc1OCCCN1CCOCC1 [ZM447439] | 14 | 3 | 6 | 10 | tended to be more effective in HPV-positive cell lines | 7.24 |
| COc1ccc([C@@H]2CC(=O)c3c(O)cc(O[C@@H]4O[C@H](CO[C@@H]5O[C@@H](C)[C@H](O)[C@@H](O)[C@H]5O)[C@@H](O)[C@H](O)[C@H]4O)cc3O2)cc1O [hesperidin] | – | – | – | – | more effective in HPV-positive than in HPV-negative cell lines | – |
| Cc1cc(CN2CCN(c3c(Br)cnc4nc(-c5ccc(N6CCN(C)CC6)cc5)[nH]c34)CC2)no1 [CCT137690] | – | – | – | – | tended to be more effective in HPV-positive cell lines | – |
| WYE354 | 16 | 1 | 10 | 6 | – | 8.98 |
| COC(=O)c1ccc2c(c1)NC(=O)/C2=C(\Nc1ccc(N(C)C(=O)CN2CCN(C)CC2)cc1)c1ccccc1 [NINTEDANIB] | 17 | 0 | 11 | 5 | – | Inf |
| CCn1cc(-c2ccnc3[nH]c(-c4cccc(CN(C)C)c4)cc23)c(-c2ccc(NC(=O)N(C)C)cc2)n1 [GSK1070916] | 12 | 5 | 4 | 12 | tended to be more effective in HPV-positive cell lines | – |
| COc1ccc(-c2ccc3c(N4CCOC[C@@H]4C)nc(N4CCOC[C@@H]4C)nc3n2)cc1CO [AZD8055] | 17 | 0 | 11 | 5 | – | Inf |
| COc1cc2c(c(OC)c1OC)-c1ccc(OC)c(=O)cc1[C@@H](NC(C)=O)CC2 [COLCHICINE] | – | 10 | – | 15 | – | – |
| O=C(Nc1cccc(Cl)c1)Nc1ncc(CCNc2ncnc3ccsc23)s1 [SNS314] | 15 | 2 | 8 | 8 | tended to be more effective in HPV-positive cell lines | – |
| Clc1ccc(C2(c3ccc(-c4cn[nH]c4)cc3)CCNCC2)cc1 [AT7867] | 17 | 0 | 12 | 4 | – | Inf |
| Cc1csc(-c2nnc(Nc3ccc(Oc4ncccc4-c4ccnc(N)n4)cc3)c3ccccc23)c1 [AMG900] | – | – | – | – | tended to be more effective in HPV-positive cell lines | – |
| CCc1cccc(CC)c1NC(=O)N1Cc2n[nH]c(NC(=O)c3ccc(N4CCN(C)CC4)cc3)c2C1 [PHA680632] | – | – | – | – | tended to be more effective in HPV-positive cell lines | – |
| Nc1nc(Nc2ccc(S(N)(=O)=O)cc2)nn1C(=O)c1c(F)cccc1F [JNJ7706621] | 11 | 6 | 4 | 12 | more effective in HPV-positive than in HPV-negative cell lines | – |
| Cc1nc(N)sc1-c1ccnc(Nc2ccc(N3CCOCC3)cc2)n1 [CYC116] | 15 | 2 | 7 | 9 | tended to be more effective in HPV-positive cell lines | – |
| CN(C)c1ccc(-c2nc3ncc(Cl)c(N4CCN(CC(=O)Nc5nccs5)CC4)c3[nH]2)cc1 [CCT129202] | – | – | – | – | tended to be more effective in HPV-positive cell lines | – |

From patent publication US20260258420A1, “COMPOSITIONS AND METHODS FOR THE TREATMENT OF HUMAN PAPILLOMAVIRUS-DRIVEN CANCERS” (priority 2023, published 2026)
